Data reported in US20170121315A1, “HETEROBICYCLICALLY SUBSTITUTED 4-OXOBUTANE ACID DERIVATIVES AND USE THEREOF” (priority 2014, published 2017).

Experiments:
Assay type in all cases: biochemical
MMP-1 = target: T1, MMP-1 (Homo sapiens, UniProt P03956); experiment: In vitro MMP-1 inhibition test; details: human MMP-1
T1 construct: purchased R&D Systems 901-MP
T1 sequence (P03956 100-469): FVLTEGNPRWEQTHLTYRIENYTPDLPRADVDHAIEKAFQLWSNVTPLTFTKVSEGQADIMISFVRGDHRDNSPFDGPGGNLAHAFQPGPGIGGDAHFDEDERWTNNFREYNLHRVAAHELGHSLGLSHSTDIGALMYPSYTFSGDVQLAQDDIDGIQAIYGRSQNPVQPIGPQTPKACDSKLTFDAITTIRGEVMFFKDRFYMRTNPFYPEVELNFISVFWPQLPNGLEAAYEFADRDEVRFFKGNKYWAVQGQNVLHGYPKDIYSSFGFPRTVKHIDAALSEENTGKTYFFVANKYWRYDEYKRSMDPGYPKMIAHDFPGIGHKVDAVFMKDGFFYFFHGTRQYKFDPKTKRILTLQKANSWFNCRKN
Procedure, shortened: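 Recombinant enzyme was APMA-activated and used at e.g. 2 nM final in 50 mM Tris/HCl pH 7.5, 10 mM CaCl2, 150 mM NaCl, 0.05% Brij-35. Reaction was started with quenched Mca-Pro-Leu-Gly-Leu-Dpa(Dnp)-Ala-Arg-NH2 (e.g. 10 μM final), and fluorescence (ex 320/em 410 nm) was followed e.g. over 120 min at 32 °C. IC50 is the concentration giving 50% signal.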

MMP-3 = target: T2, MMP-3 (Homo sapiens, UniProt P08254); experiment: In vitro MMP-3 inhibition test; details: human MMP-3
T2 construct: purchased R&D Systems 513-MP
Procedure, shortened: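 APMA-activated recombinant MMP-3 (e.g. 2 nM final) with compound in Tris/HCl pH 7.5, CaCl2, NaCl, Brij-35; reaction started with quenched Mca/Dnp peptide substrate (e.g. 10 μM final). Fluorescence (ex 320/em 410 nm) followed e.g. 120 min at 32 °C; IC50 is concentration giving 50% signal.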

MMP-13 = target: T3, MMP-13 (Homo sapiens, UniProt P45452); experiment: In vitro MMP-13 inhibition test; details: human MMP-13
T3 construct: purchased R&D Systems 511-MP
Procedure, shortened: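 APMA-activated recombinant enzyme (e.g. 0.1 nM final) was tested with compounds (e.g. 1 nM–30 µM, DMSO) in 50 mM Tris/HCl pH 7.5, 10 mM CaCl2, 150 mM NaCl, 0.05% Brij-35. Mca-PLGL-Dpa(Dnp)-AR-NH2 was the substrate (e.g. 10 µM). Fluorescence (ex 320/em 410 nm) was followed e.g. 120 min at 32 °C, and IC50 was read at 50% signal.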

MMP-16 = target: T4, MMP-16 (Homo sapiens, UniProt P51512); experiment: In vitro MMP-16 inhibition test; details: human MMP-16
T4 construct: purchased R&D Systems 1785-MP
Procedure, shortened: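 Furin-activated recombinant MMP-16 (e.g. 1 nM final) with compound (e.g. 1 nM–30 μM, DMSO) in 50 mM Tris/HCl pH 7.5, 10 mM CaCl2, 150 mM NaCl, 0.05% Brij-35. Reaction started with quenched Mca-Lys-Pro-Leu-Gly-Leu-Dpa(Dnp)-Ala-Arg-NH2 (e.g. 5 μM) and read by fluorescence (ex 320/em 410 nm), e.g. over 120 min at 32 °C. IC50 taken at 50% signal.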

T4 sequence (P51512 120-564 limits assumed): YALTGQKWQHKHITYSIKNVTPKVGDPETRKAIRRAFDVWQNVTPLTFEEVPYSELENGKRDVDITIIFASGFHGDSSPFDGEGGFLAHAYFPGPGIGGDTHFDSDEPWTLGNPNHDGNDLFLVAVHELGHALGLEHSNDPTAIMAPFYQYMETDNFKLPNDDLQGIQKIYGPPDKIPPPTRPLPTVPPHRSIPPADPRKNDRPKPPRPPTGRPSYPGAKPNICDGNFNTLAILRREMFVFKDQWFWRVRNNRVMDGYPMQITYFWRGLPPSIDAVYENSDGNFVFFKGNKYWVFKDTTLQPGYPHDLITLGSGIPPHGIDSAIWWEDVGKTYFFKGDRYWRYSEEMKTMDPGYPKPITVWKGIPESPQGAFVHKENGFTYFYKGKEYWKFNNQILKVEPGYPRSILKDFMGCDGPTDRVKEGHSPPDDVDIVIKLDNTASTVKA
T2 sequence (P08254 100-477): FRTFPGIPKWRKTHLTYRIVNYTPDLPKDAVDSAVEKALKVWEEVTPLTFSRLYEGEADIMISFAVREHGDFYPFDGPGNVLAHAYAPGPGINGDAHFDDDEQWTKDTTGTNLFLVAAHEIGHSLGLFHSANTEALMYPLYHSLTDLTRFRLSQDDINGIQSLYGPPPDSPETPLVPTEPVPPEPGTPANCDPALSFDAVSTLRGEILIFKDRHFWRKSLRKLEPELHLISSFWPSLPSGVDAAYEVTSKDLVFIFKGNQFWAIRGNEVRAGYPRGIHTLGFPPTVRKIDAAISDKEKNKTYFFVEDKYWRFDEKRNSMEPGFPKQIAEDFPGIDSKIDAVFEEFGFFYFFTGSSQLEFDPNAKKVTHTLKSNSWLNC

- IC50 (MMP-1): > 40000 nM
- IC50 (MMP-3): 2200 nM
- IC50 (MMP-13): 660 nM
- IC50 (MMP-16): 3000 nM
Compound: O=C(O)[C@@H]1[C@@H](Cn2nnc3ccc(C(F)(F)F)cc3c2=O)CC[C@H]1C(=O)c1cc2cc(OCCc3ccccc3)ccc2o1 (single isomer, unassigned; enantiomer 2) [Example 159, (+)-(1RS,2SR,5RS)-2-{[4-Oxo-6-(trifluoromethyl)-1,2,3-benzotriazin-3(4H)-yl]methyl}-5-{[5-(2-phenylethoxy)-1-benzofur-2-yl]carbonyl}cyclopentanecarboxylic acid (enantiomer 2)]
